Laboratory results published in US20070117839A1, “Two cyclic cinnamide compound” (Eisai R&D Management Co., Ltd., priority 2005, published 2007).

What follows are compounds tested on Aβ 42 Production (assay: Quantification of Aβ peptide in culture of neurons from rat fetus brain (Aβ ELISA)). Details: Neuron, 72 h; rat primary neuronal culture (embryonic day 18 Wistar rat cerebral cortex), cultured three days after addition of the compound, Aβx-42 ELISA of the medium; read-out: Activity for reducing Aβ 42 Production IC50.
Format: cell-based
Protocol: Quantification of Aβ Peptide in Culture of Neurons from Rat Fetus Brain
(1) Rat Primary Neuronal Culture
Primary neuronal cultures were prepared from the cerebral cortex of embryonic day 18 Wistar rats (Charles River Japan, Yokohama, Japan). Specifically, the embryos were aseptically removed from pregnant rats under ether anesthesia. The brain was isolated from the embryo and immersed in an ice-cold L-15 medium (Invitrogen Corp. Cat #11415-064, Carlsbad, Calif., USA, or SIGMA L1518, for example). The cerebral cortex was collected from the isolated brain under a stereoscopic microscope. The cerebral cortex fragments collected were enzymatically treated in an enzyme solution containing 0.25% trypsin (Invitrogen Corp. Cat #15050-065, Carlsbad, Calif., USA) and 0.01% DNase (Sigma D5025, St. Louis, Mo., USA) at 37° C. for 30 minutes to disperse the cells. Here, the enzymatic reaction was stopped by adding inactivated horse serum to the solution. The enzymatically treated solution was centrifuged at 1,500 rpm for five minutes to remove the supernatant. 5 to 10 mL of a medium was added to the resulting cell mass. Neurobasal medium (Invitrogen Corp. Cat #21103-049, Carlsbad, Calif., USA) supplemented with 2% B27 supplement (Invitrogen Corp. Cat #17504-044, Carlsbad, Calif., USA), 25 μM 2-mercaptoethanol (2-ME, WAKO Cat #139-06861, Osaka, Japan), 0.5 mM L-glutamine (Invitrogen Corp. Cat #25030-081, Carlsbad, Calif., USA), and Antibiotics-Antimycotics (Invitrogen Corp. Cat #15240-062, Carlsbad, Calif., USA) was used as the medium (Neurobasal/B27/2-ME). However, the above Neurobasal medium not supplemented with 2-ME (Neurobasal/B27) was used for the assay. The cells were redispersed by mild pipetting of the cell mass to which the medium was added. The cell dispersion was filtered through a 40-μm nylon mesh (Cell Strainer, Cat #35-2340, Becton Dickinson Labware, Franklin Lakes, N.J., USA) to remove the remaining cell mass, and thus a neuronal cell suspension was obtained. The neuronal cell suspension was diluted with the medium and then plated in a volume of 100 μl/well at an initial cell density of 5×10^5 cells/cm^2 in a 96-well polystyrene culture plate pre-coated with poly-L or D-lysine (Falcon Cat #35-3075, Becton Dickinson Labware, Franklin Lakes, N.J., USA coated with poly-L-lysine using the method shown below, or BIOCOAT™ cell environments Poly-D-lysine cell ware 96-well plate, Cat #35-6461, Becton Dickinson Labware, Franklin Lakes, N.J., USA). Poly-L-lysine coating was carried out as follows. 100 μg/ml of a poly-L-lysine (SIGMA P2636, St. Louis, Mo., USA) solution was aseptically prepared with a 0.15 M borate buffer (pH 8.5). 100 μl/well of the solution was added to the 96-well polystyrene culture plate and incubated at room temperature for one or more hours or at 4° C. overnight or longer. The coated 96-well polystyrene culture plate was washed with sterile water four or more times, and then dried or rinsed with, for example, sterile PBS or medium, and used for cell plating. The plated cells were cultured in the culture plate at 37° C. in 5% CO2-95% air for one day. Then, the total amount of the medium was replaced with a fresh Neurobasal/B27/2-ME medium, and then the cells were cultured for further three days.
The drug was added to the culture plate on Day 4 of culture as follows. The total amount of the medium was removed from the wells, and 180 μl/well of Neurobasal medium not containing 2-ME and containing 2% B-27 (Neurobasal/B27) was added thereto. A solution of the test compound in dimethyl sulfoxide (hereinafter abbreviated as DMSO) was diluted with Neurobasal/B27 at 10-fold of the final concentration. 20 μl/well of the dilution was added to and sufficiently mixed with the medium. The final DMSO concentration was 1% or less. Only DMSO was added to the control group.
The cells were cultured for three days after addition of the compound, and the total amount of the medium was collected. […]

SMILES	IC50 [nM]
COc1cc(/C=C2\CC[C@H]3CCC[C@@H](c4ccc(F)c(F)c4)N3C2=O)ccc1-n1cnc(C)c1 [Example 90, (6S,9aR)-6-(3,4-difluorophenyl)-3-{1-[3-methoxy-4-(4-methyl-1H-imidazol-1-yl)phenyl]-(E)-methylidene}octahydroquinolizin-4-one]	39
COc1cc(/C=C2\CC[C@H]3CCC[C@@H](c4cc(F)c(F)c(F)c4)N3C2=O)ccc1-n1cnc(C)c1 [Example 91, (6S,9aR)-6-(3,4,5-trifluorophenyl)-3-{1-[3-methoxy-4-(4-methyl-1H-imidazol-1-yl)phenyl]-(E)-methylidene}octahydroquinolizin-4-one]	33
COc1cc(/C=C2\CC[C@H]3CCC[C@@H](c4ccc(Cl)cc4)N3C2=O)ccc1-n1cnc(C)c1 [Example 92, (6S,9aR)-6-(4-chlorophenyl)-3-{1-[3-methoxy-4-(4-methyl-1H-imidazol-1-yl)phenyl]-(E)-methylidene}octahydroquinolizin-4-one]	40
COc1cc(/C=C2\CC[C@H]3COC[C@@H](c4ccc(F)c(F)c4)N3C2=O)ccc1-n1cnc(C)c1 [Example 95, (4R,9aS)-4-(3,4-difluorophenyl)-7-{1-[3-methoxy-4-(4-methyl-1H-imidazol-1-yl)phenyl]-(E)-methylidene}hexahydropyrido[2,1-c][1,4]oxazin-6-one]	87
COc1cc(/C=C2\CC[C@H]3COC[C@@H](c4ccc(Cl)cc4)N3C2=O)ccc1-n1cnc(C)c1 [Example 96, (4R,9aS)-4-(4-chlorophenyl)-7-{1-[3-methoxy-4-(4-methyl-1H-imidazol-1-yl)phenyl]-(E)-methylidene}hexahydropyrido[2,1-c][1,4]oxazin-6-one]	65
COc1cc(/C=C2\CC[C@H]3CN(C)C[C@@H](c4cc(F)c(F)c(F)c4)N3C2=O)ccc1-n1cnc(C)c1 [Example 110, (4R,9aS)-7-{1-[3-methoxy-4-(4-methyl-1H-imidazol-1-yl)phenyl]-(E)-methylidene}-2-methyl-4-(3,4,5-trifluorophenyl)octahydropyrido[1,2-a]pyrazin-6-one]	29
